Measurements: US20220125839A1, “COMBINATION OF T-CELL THERAPY AND TARGETED THERAPY FOR TREATING THERAPY-RESISTANT MELANOMA WITH MUTATIONS IN THE BRAF GENE” (H. LEE MOFFITT CANCER CENTER AND RESEARCH INSTITUTE, INC., priority 2019, published 2022)

How the values were obtained:
lung cancer and lymphoma = settings: models of lung cancer and lymphoma; cited from earlier work
M6PR = M6PR expression by flow cytometry in different melanoma cell lines treated with dabrafenib; type: cell-based, human; settings: 16 hr, 1 μM or 5 μM
Experimental: FIGS. 4A and 4B show WM35 cells resistant to PLX4720. […] Cell viability was measured in experimental replicates in MTT test after 2 and 4 days of treatment. Mean and SD are shown. FIG. 4B show the effect of Dabrafenib on the expression of M6PR. Indicated cells were treated with dabrafenib for 16 hr (1 μM or 5 μM) and M6PR expression was evaluated by flow cytometry. Mean and SD are shown. P values were calculated using two-sided Student's t-test; *-p<0.05; ** p<0.01; ***-p<0.001; ****-p<0.0001 from DMSO treated controls.
M6PR expression levels were detected by flow cytometry. Cells were incubated with Aqua dead cell staining kit (Thermo Fischer Scientific; Cat. no. L34957) for 15 min at 4° C., followed by staining with Alexa Fluor 647-conjugated mouse antibody specific for human IGF2R/M6PR (BD Biosciences; Cat. no. 565105; clone no. MEM-238) or its isotype (BD Biosciences; Cat. no. 557732; clone no. MOPC-21) at 4° C. for 20 minutes. Cells were fixed using 1% paraformaldehyde for 20 minutes at 4° C. before running them on LSR14. Data was analyzed by FlowJo software (Tree Star).

[1] = system: BRAFV600E mutant melanoma; settings: patients with BRAFV600E mutant melanoma; cited from earlier work

Structure (SMILES) | effect on anti-tumor effect of immunotherapy (lung cancer and lymphoma) | expression of M6PR (M6PR) | clinical responses [1]
N.N.[Cl][Pt][Cl] [cisplatin] | potentiate the anti-tumor effect of immunotherapy via up-regulation of M6PR on the tumor cell surface | – | –
CC(C)(C)c1nc(-c2cccc(NS(=O)(=O)c3c(F)cccc3F)c2F)c(-c2ccnc(N)n2)s1 [dabrafenib] | – | substantial up-regulation of the receptor | impressive clinical responses
COc1cccc2c1C(=O)c1c(O)c3c(c(O)c1C2=O)C[C@@](O)(C(=O)CO)C[C@@H]3O[C@H]1C[C@H](N)[C@H](O)[C@H](C)O1 [doxorubicin] | potentiate the anti-tumor effect of immunotherapy via up-regulation of M6PR on the tumor cell surface | – | –
CC(=O)O[C@H]1C(=O)[C@@]2(C)[C@H]([C@H](OC(=O)c3ccccc3)[C@]3(O)C[C@H](OC(=O)[C@H](O)[C@@H](NC(=O)c4ccccc4)c4ccccc4)C(C)=C1C3(C)C)[C@]1(OC(C)=O)CO[C@@H]1C[C@@H]2O [paclitaxel] | potentiate the anti-tumor effect of immunotherapy via up-regulation of M6PR on the tumor cell surface | – | –
